How the values were obtained:
[1] = Hypersensitivity factor, IC50 (AA8) air /IC50 (UV4) in air; type: functional
[2] = Tested for the product of the drug concentration to the exposure time needed to reduce cell survival to 10% of controls using AA8 cells at 10 E 6 /mL in the clonogenic assay; type: functional, Cricetulus griseus, CHO-AA8
[3] = Hypersensitivity factor, IC50 (AA8) air /IC50 (UV4) in N2; type: functional
[4] = IC50 (air/N2) ratio of the drug to reduce cell numbers to 50 percent of controls using AA8 cells in the microassay; type: functional, Cricetulus griseus, CHO-AA8
[5] = Tested for the concentration of the drug to reduce cell numbers to 50 percent of controls against AA8 cells in the microassay; type: functional, cell-based, Cricetulus griseus; details: cho-aa8
[6] = Acridine pKa values were determined in aqueous solution at 25 degrees Centigrade by spectrophotometric method.; type: physicochemical
[7] = CT10 (air/N2) ratio of the product of the drug concentration to the exposure time needed to reduce cell survival to 10% of controls using AA8 cells at 10 E 6 /mL in the clonogenic assay; type: functional, Cricetulus griseus, CHO-AA8
[8] = CT10 (air/N2) ratio of the product of the drug concentration to the exposure time needed to reduce cell survival to 10% of controls using AA8 cells at 10 E 6 /mL in the clonogenic assay; range is 1-2; type: functional, Cricetulus griseus, CHO-AA8
[9] = CT10 (air/N2) ratio of the product of the drug concentration to the exposure time needed to reduce cell survival to 10% of controls using AA8 cells at 10 E 6 /mL in the clonogenic assay; range is 0.8-1.5; type: functional, Cricetulus griseus, CHO-AA8

Row | IC50 ratio [4] | IC50 [5] [nM] | pKa [6] | SMILES | HF [1] | CT10 [2] [µM·h] | HF [3] | CT10 ratio [7] | CT10 ratio [8] | CT10 ratio [9]
1 | 1.2 | 380 | 7.4 | O=[N+]([O-])c1cccc2nc3ccccc3c(NCc3ccccc3)c12 | 12 | 9 | 17 | 1.9 |  | 
2 | 1.42 | 32 | 7.2 | CCCNc1c2ccccc2nc2cccc([N+](=O)[O-])c12 | 11 | 0.62 | 20 | 3.4 |  | 
3 | 1.3 | 122 | 7.4 | O=[N+]([O-])c1cccc2nc3ccccc3c(NCCc3ccccc3)c12 | 14 | 2.8 | 15 | 2.3 |  | 
4 | 1.45 | 27 | 7.55 | O=[N+]([O-])c1cccc2nc3ccccc3c(NCCCO)c12 | 15 | 0.43 | 13 | 3 |  | 
5 | 1.02 | 3600 | 7.3 | Nc1c2ccccc2nc2cccc([N+](=O)[O-])c12 | 4.5 | 3.9 | 5.8 |  | 2 | 
6 | 1.65 | 15.5 | 7.4 | CN(C)CCCCCNc1c2ccccc2nc2cccc([N+](=O)[O-])c12 |  | 0.32 |  | 7 |  | 
7 | 4.8 | 34 | 6.2 | CNCCCNc1c2ccccc2nc2cccc([N+](=O)[O-])c12 | 14 | 0.38 | 11 | 5.9 |  | 
8 | 4.2 | 18000 |  | O=C(O)CCCNc1c2ccccc2nc2cccc([N+](=O)[O-])c12 | 6.1 | 50 | 6.6 | 2.5 |  | 
9 | 1.3 | 3.8 | 7.2 | CNc1c2ccccc2nc2cccc([N+](=O)[O-])c12 | 11 | 0.01 | 11 |  |  | 1.5
10 | 1.1 | 11.5 | 7.2 | O=[N+]([O-])c1cccc2nc3ccccc3c(NCCO)c12 | 15 | 0.13 | 18 | 3.2 |  | 
11 | 1.55 | 11.5 | 7.4 | CN(C)CCCCCCNc1c2ccccc2nc2cccc([N+](=O)[O-])c12 |  | 0.38 |  | 6.8 |  | 
12 | 7.4 | 47 | 4.9 | CN(C)CCNc1c2ccccc2nc2cccc([N+](=O)[O-])c12 | 19 | 1.22 | 15 | 14 |  | 
13 | 2.6 | 26 | 6.9 | CN(C)CCCCNc1c2ccccc2nc2cccc([N+](=O)[O-])c12 | 20 | 0.46 | 29 | 11.9 |  | 
14 | 1.13 | 120 | 7.4 | CC(C)CCNc1c2ccccc2nc2cccc([N+](=O)[O-])c12 | 12 | 3.2 | 16 | 2.4 |  | 
15 | 3.5 | 26.3 | 6.2 | CN(C)CCCNc1c2ccccc2nc2cccc([N+](=O)[O-])c12 [NITRACRINE] | 12.9 | 0.47 | 14.9 | 9.9 |  | 

Reference: ChEMBL document CHEMBL1124754, “Hypoxia-selective antitumor agents. 4. Relationships between structure, physicochemical properties, and hypoxia-selective cytotoxicity for nitracrine analogues with varying side chains: the "iminoacridan hypothesis"” (J Med Chem, 1990)
